Results taken from patent US20260200982A1, “HER RECEPTOR DERIVED PEPTIDES AND METHODS OF USE THEREOF” (Ramot at Tel-Aviv University Ltd., priority 2022, published 2026).
One block for each compound: values may come before it. Where a SMILES comes first, the peptide text is derived from it. Bridges are numbered along the chain shown (N, C = ends). [ ]: non-standard residue; d: D form. The star is where a group is joined. Myristoyl = CCCCCCCCCCCCCC(=O)*; S5 = C=CCCC[C@](C)(N)C(=O)O

Experiments:
U87 glioma cells = format: cell-based, human; details: 72 h
Text: (§1) Cell lines—Human breast cancer cell lines SKBR3 [Peles E et al. EMBO J. (1993) 12(3):961-71] and MCF7 [Faigenbloom L et al., Mol Syst Biol. (2015) 11(12):845] and human glioblastoma U87 [Goldberg L et al. Cancer Res. (2006) 66(24):11709-17] cell line, as well as Rat-1 fibroblast cells and H-Ras-transformed Rat-1 cells (EJ cells) [Marom M et al. J Biol Chem. (1995) 270(38):22263-70] and human Panc-1 and MIA PaCa-2 pancreatic cell lines (Rak R et al. Oncoscience. 2014 1(1):39-48; Weisz B et al. Oncogene (1999) 18, 2579±2588) were all grown in Dulbecco's modified Eagle's medium (DMEM; Biological Industries, Beithaemek, Israel). Human colorectal cancer cell lines DLD-1 (ATTC Cat No. CCL-221), HCT-116 (ATTC Cat No. CCL-247) and LNCaP prostate cancer cells were grown in Roswell Park Memorial Institute 1640 (RPMI 1640) medium and McCoy's 5A media, respectively (Sigma-Aldrich). All media were supplemented with antibiotics and 10% heat-inactivated fetal bovine serum (FBS; Gibco). Human breast cell line MCF10A [Bott A et al. Oncotarget. (2017) 8(27):43897-43914] was grown in Dulbeco's Modified Eagle's Medium/Nutrient Mixture F-12 HAM medium (DMEM F-12 HAM; Sigma-Aldrich), supplemented with antibiotics, 5% inactivated horse serum (HS; Invitrogen), 2 mM L-glutamine (Biological Industries, Beithaemek, Israel), 0.1 μg/ml cholera toxin (Sigma-Aldrich), 0.5 μg/ml hydrocortisone (Sigma-Aldrich), 10 μg/ml insulin (Biological Industries, Beithaemek, Israel) and 2 ng/ml EGF (R&D Systems). Cells were incubated at 37° C. in 5% CO2 in air, and the medium was changed every 3-4 days. Cells were passaged in trypsin/disodium ethylenediaminetetraacetic acid (Biological Industries, Beithaemek, Israel) when confluency reached 70%. One day prior to treatment the cells were plated at ~50% confluency in a medium supplemented with 10% FBS or 5% HS, accordingly.
(§2) Methylene blue viability assay—Cells were plated in 96-wells plates at cell densities of 1.5×10^3 (EJ, DLD-1), 3×10^3 (Rat-1, HCT-116, U87), 5×10^3 (SKBR3, MCF7) and 6×10^3 (MCF10A) cells/well. On the following day, cells were treated as indicated, and grown for 72 hours. Cell number determination was performed as described previously. IC-50 values were calculated using a non-linear regression model (logarithmic inhibitor vs. normalized response-variable slope) with the GraphPad Prism 6 software.

[1] = system: Panc-1 pancreatic cancer cells; format: cell-based, human; details: 72 h
Text: as §1, §2

[2] = system: HCT-116 colon cancer cells; format: cell-based, human
Text: as §1, §2

DLD-1 colon cancer cells = format: cell-based, human
Text: as §1, §2

[3] = system: SKBR3 breast cancer cells; format: cell-based, human
Text: as §1
as §2, with “On the following day, cells were treated as indicated, and grown for 72 hours.” left out

MCF7 breast cancer cells = format: cell-based, human
Text: as §1
as §2, with “On the following day, cells were treated as indicated, and grown for 72 hours.” left out

[4] = system: H-Ras-transformed Rat-1 cells (EJ cells); format: cell-based
Text: Cell lines—Human breast cancer cell lines SKBR3 [Peles E et al. EMBO J. (1993) 12(3):961-71] and MCF7 [Faigenbloom L et al., Mol Syst Biol. (2015) 11(12):845] and human glioblastoma U87 [Goldberg L et al. Cancer Res. (2006) 66(24):11709-17] cell line, as well as Rat-1 fibroblast cells and H-Ras-transformed Rat-1 cells (EJ cells) [Marom M et al. J Biol Chem. (1995) 270(38):22263-70] and human Panc-1 and MIA PaCa-2 pancreatic cell lines (Rak R et al. Oncoscience. 2014 1(1):39-48; Weisz B et al. Oncogene (1999) 18, 2579±2588) were all grown in Dulbecco's modified Eagle's medium (DMEM; Biological Industries, Beithaemek, Israel). Human colorectal cancer cell lines DLD-1 (ATTC Cat No. CCL-221), HCT-116 (ATTC Cat No. CCL-247) and LNCaP prostate cancer cells were grown in Roswell Park Memorial Institute 1640 (RPMI 1640) medium and McCoy's 5A media, respectively (Sigma-Aldrich). All media were supplemented with antibiotics and 10% heat-inactivated fetal bovine serum (FBS; Gibco). Human breast cell line MCF10A [Bott A et al. Oncotarget. […]
as §2, with “On the following day, cells were treated as indicated, and grown for 72 hours. Cell number determination was performed as described previously.” left out

[5] = system: non-cancerous (MCF10A) breast cell line; assay: Methylene blue viability assay, MCF10A; format: cell-based, human
Text: as §1, §2

ErbB2 = assay: Immunoblotting of cell lysates, ErbB2 phosphorylation; format: cell-based, human; details: SKBR3, DLD-1 and HCT116; 50 μM, 24 hours; FIG. 3B
Protocol: (§3) Lysate preparation and immunoblotting—Cells were seeded at cell densities of 1.5×10^5 (DLD-1), 1.8×10^5 (HCT-116) and 2.5×10^5 (SKBR3) cells/well, treated as indicated and grown for 24 hours. Following, cells were lysed in solubilization buffer; the lysates were cleared by centrifugation and a boiling gel sample buffer was added. Proteins were resolved by SDS-polyacrylamide gel electrophoresis through 10% polyacrylamide gels, and were electrophoretically transferred to nitrocellulose membranes. Membranes were blocked in TBST buffer containing 6% milk, and blotted with primary antibodies. Following, a secondary antibody linked to horseradish peroxidase was added. Immunoreactive bands were detected with the enhanced chemiluminescence reagent Immobilon Crescendo Western HRP substrate (WBLUR0100; Merck Millipore).

[6] = molecular target: T1, ErbB2-nucleolin complexes (Homo sapiens, UniProt P19338); assay: Proximity Ligation Assay (PLA); format: cell-based; details: SKBR3 cells, 53 μM, 48 hours, FIG. 3A
T1 construct: endogenous in cells; host or cells: SKBR3
T1 sequence (P19338 2-710 limits assumed, one chain of several): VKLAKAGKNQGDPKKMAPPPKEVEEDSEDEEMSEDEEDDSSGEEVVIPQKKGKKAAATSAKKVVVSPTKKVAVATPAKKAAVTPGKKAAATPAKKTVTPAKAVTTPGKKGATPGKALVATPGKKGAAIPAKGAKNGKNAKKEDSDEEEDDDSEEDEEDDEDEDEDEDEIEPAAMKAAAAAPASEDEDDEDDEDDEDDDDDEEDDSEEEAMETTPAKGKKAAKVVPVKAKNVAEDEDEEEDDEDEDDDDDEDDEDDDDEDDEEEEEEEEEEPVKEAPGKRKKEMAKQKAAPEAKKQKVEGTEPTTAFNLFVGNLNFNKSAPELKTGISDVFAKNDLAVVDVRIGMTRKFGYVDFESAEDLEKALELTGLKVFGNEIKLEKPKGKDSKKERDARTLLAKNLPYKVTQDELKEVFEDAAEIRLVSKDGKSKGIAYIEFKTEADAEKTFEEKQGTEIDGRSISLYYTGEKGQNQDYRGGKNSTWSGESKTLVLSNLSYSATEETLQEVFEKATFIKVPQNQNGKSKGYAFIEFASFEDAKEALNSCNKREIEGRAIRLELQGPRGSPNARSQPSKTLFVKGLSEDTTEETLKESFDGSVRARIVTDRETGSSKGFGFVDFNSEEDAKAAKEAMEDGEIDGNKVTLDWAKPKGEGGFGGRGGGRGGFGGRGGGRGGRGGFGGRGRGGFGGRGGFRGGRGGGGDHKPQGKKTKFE
Protocol: Proximity Ligation Assay (PLA)—For proximity ligation assay (PLA) cells were plated in a 16-wells Nunc Lab-Tek glass Chamber Slide System (178599; Thermo Scientific) at a density of 3.5×10^3 cells/well. 2 hours post-seeding the cells were treated with 53 μM of either TAT peptide (SEQ ID NO: 2) or TAT-NLS peptide (SEQ ID NO: 3) and grown for 48 hours. Following fixation, cells were incubated with rabbit anti-ErbB2 and mouse anti-nucleolin antibodies. PLA was performed using the Duolink In-Situ PLA probes: anti-rabbit MINUS and anti-mouse PLUS, and the Duolink In-Situ Detection Reagents Red kit (DUO92005; DUO92001; DUO92008, respectively; Sigma-Aldrich), according to the manufacturer's instructions. Nuclei were stained using the Duolink In-Situ Mounting Medium with DAPI (DUO82040; Sigma-Aldrich). Slides were visualized 24 hours post-staining and images were obtained using an Olympus motorized inverted research microscope Model IX81 (60× magnification). Signal intensity was determined using ImageJ software.

EGFR (ErbB1) = assay: Immunoblotting of cell lysates, EGFR phosphorylation; format: cell-based, human; details: SKBR3, DLD-1 and HCT116; 50 μM, 24 hours; FIG. 3B
Protocol: as §3

DLD-1 cells = assay: Colony formation assay, DLD-1; format: cell-based, human; details: 20 μM, 72 hours, FIG. 12
Protocol: Colony formation assay—Cells were plated onto 12-well plate (6×10^4 cells/well) and treated with either PBS or myr-NLS at the IC50 concentration for 3 days. Cells were collected and replated in 10-cm plates (at 3 dilutions of 1:10, 1:20 and 1:40). After 7-14 days when visible and yet separated colonies were formed, the cells were fixed with 0.1% acetic acid in PBS, and stained with 0.4% crystal violet in 0.1% acetic acid. Total colonies area was calculated using the ImageJ program.
In addition, a colony formation assay was conducted to further examine the anti-tumor effect of the myr-NLS (SEQ ID NO: 5), myr-NLS2 (SEQ ID NO: 15) and myr-NLS4 (SEQ ID NO: 17) peptides. To this end, DLD-1 cells were treated or untreated for 72 hours with 20 μM of the myr-peptides. Cells were then seeded at the same dilutions in new plates until colonies were formed.

[7] = system: DLD-1 colon cancer tumor xenografts; assay: Colon Tumor Growth in Nude Mice; format: in vivo; details: DLD-1 xenografts, 25 μg/100 μl PBS intraperitoneal daily, FIGS. 14A-C
Protocol: Colon Tumor Growth in Nude Mice—Nude CD1-Nu mice (25-30 g) housed in barrier facilities on a 12-h light/dark cycle one week prior to the injection of tumor cells (day zero). On day zero, 5×10^6 DLD-1 cells were implanted subcutaneously just above the right femoral joint. Tumor size was measured every 3-4 days. When the tumors were apparently seen, the animals were divided randomly into three groups of mice [control vehicle treated, myr-NLS1 (SEQ ID NO: 5), myr-NLS4 (SEQ ID NO: 17)]. Treatment was performed by intraperitoneal injection of 25 μg in 100 μl PBS every day. Mice were weighed and tumors size was measured 3 times a week. At the end of the experiment, the mice were sacrificed, and the tumors were dissected and used for further analysis.

[8] = 30 μM peptide for 48 hours, FIG. 5A
[9] = 72 hours, 10 μM peptide, FIGS. 6A-B

IC50 (U87 glioma cells): 15.9 µM | IC50 [1]: 7.6 µM | IC50 ([2]; 72 h): 13.3 µM | IC50 (DLD-1 colon cancer cells; 72 h): 9.4 µM | IC50 ([3]; 72 h): 18.9 µM | IC50 (MCF7 breast cancer cells): 9.7 µM | IC50 [4]: 11.6 µM
Compound: CCCCCCCCCCCCCC(=O)N[C@@H](CCCNC(=N)N)C(=O)N[C@@H](CCCNC(=N)N)C(=O)N[C@@H](CCCNC(=N)N)C(=O)N[C@@H](Cc1c[nH]cn1)C(=O)N[C@H](C(=O)N[C@@]1(C)CCCC=CCCC[C@@](C)(C(=O)N[C@@H](CC(C)C)C(=O)N[C@@H](CCCNC(=N)N)C(=O)N[C@@H](CCCNC(=N)N)C(=O)N[C@@H](CC(C)C)C(=O)N[C@@H](CC(C)C)C(=O)O)NC(=O)[C@H](CCCNC(=N)N)NC(=O)[C@H](CCCCN)NC(=O)[C@H](CCCNC(=N)N)NC1=O)[C@@H](C)CC [mN6-10, Myr-RRRHI(S5)RKR(S5)LRRLL] (Myristoyl-RRRHI[S5]RKR[S5]LRRLL-OH; staple 6-10; C-terminus assumed)
viability of SKBR3 breast cancer cells [3, 8]: even more efficient than the myr-NLS peptide | viability of MCF7 breast cancer cells (MCF7 breast cancer cells; [8]): even more efficient than the myr-NLS peptide | MCF7 cell viability (MCF7 breast cancer cells; [9]): decreased MCF7 cell viability | viability of non-cancerous MCF10 breast cells [5, 9]: had no effect

Compound: GRKKRRQRRRPPQRRRHIVRKRTLRRLL [TAT-NLS]
cell growth of HCT-116 colon cancer cells ([2]; 72 hours, FIGS. 2A-C): inhibited cell growth | IC50 on cell viability ([2]; HCT116, 72 hours, FIG. 2C): 27.7 µM | cell growth of DLD-1 colon cancer cells (DLD-1 colon cancer cells; 72 hours, FIGS. 2A-C): inhibited cell growth | IC50 on cell viability (DLD-1 colon cancer cells; DLD-1, 72 hours, FIG. 2C): 40.2 µM | ErbB2 phosphorylation (ErbB2): inhibited | cell growth of SKBR3 breast cancer cells ([3]; 72 hours, FIGS. 2A-C): inhibited cell growth | IC50 on cell viability ([3]; SKBR, 72 hours, FIG. 2C): 83.1 µM | cell growth of MCF7 breast cancer cells (MCF7 breast cancer cells; 72 hours, FIGS. 2A-C): inhibited cell growth | IC50 on cell viability (MCF7 breast cancer cells; MCF7, 72 hours, FIG. 2C): 49.5 µM | viability of the non-cancerous cells MCF10 ([5]; FIGS. 2A-C): not affecting viability | interaction between the ErbB2 receptor and nucleolin (PLA) [6]: reduced the interaction | interaction between the ErbB2 receptor and nucleolin (PLA) ([6]; listed as TAL-NLS): disrupts the ErbB-nucleolin interaction | ErbB1 phosphorylation (EGFR (ErbB1)): inhibited

Compound: Myr-KRRQQKIRKYTMRRLL-OH (Myristoyl-KRRQQKIRKYTMRRLL-OH; SMILES CCCCCCCCCCCCCC(=O)N[C@@H](CCCCN)C(=O)N[C@@H](CCCNC(=N)N)C(=O)N[C@@H](CCCNC(=N)N)C(=O)N[C@@H](CCC(N)=O)C(=O)N[C@@H](CCC(N)=O)C(=O)N[C@@H](CCCCN)C(=O)N[C@H](C(=O)N[C@@H](CCCNC(=N)N)C(=O)N[C@@H](CCCCN)C(=O)N[C@@H](Cc1ccc(O)cc1)C(=O)N[C@H](C(=O)N[C@@H](CCSC)C(=O)N[C@@H](CCCNC(=N)N)C(=O)N[C@@H](CCCNC(=N)N)C(=O)N[C@@H](CC(C)C)C(=O)N[C@@H](CC(C)C)C(=O)O)[C@@H](C)O)[C@@H](C)CC) [myr-NLS2]
colony formation (total colonies area) (DLD-1 cells): fewer and smaller colonies

Compound: Myr-RRKSIKKKRALRRFL-OH (Myristoyl-RRKSIKKKRALRRFL-OH; SMILES CCCCCCCCCCCCCC(=O)N[C@@H](CCCNC(=N)N)C(=O)N[C@@H](CCCNC(=N)N)C(=O)N[C@@H](CCCCN)C(=O)N[C@@H](CO)C(=O)N[C@H](C(=O)N[C@@H](CCCCN)C(=O)N[C@@H](CCCCN)C(=O)N[C@@H](CCCCN)C(=O)N[C@@H](CCCNC(=N)N)C(=O)N[C@@H](C)C(=O)N[C@@H](CC(C)C)C(=O)N[C@@H](CCCNC(=N)N)C(=O)N[C@@H](CCCNC(=N)N)C(=O)N[C@@H](Cc1ccccc1)C(=O)N[C@@H](CC(C)C)C(=O)O)[C@@H](C)CC) [myr-NLS4]
colony formation (total colonies area) (DLD-1 cells): fewer and smaller colonies | tumor growth (tumor size, tumor weight) [7]: significantly reduced tumor cell growth
